Test results from patent US20070167456A1, “Mercaptoimidazoles as ccr2 receptor antagonists” (priority 2004, published 2007).

biological target: T1, CCR2 receptor (Homo sapiens, UniProt P41597); experiment: Inhibition of MCP-1 induced Ca-flux in human THP-1 cells; format: cell-based; details: inhibition of specific MCP-1 induced Ca2+ flux, 10^-7 M hMCP-1, 20 minutes pre-incubation, FLIPR, Fluo-3 AM
T1 construct: host or cells: THP-1 (human monocytic cell line)
T1 sequence (P41597 1-360 isoform P41597-2): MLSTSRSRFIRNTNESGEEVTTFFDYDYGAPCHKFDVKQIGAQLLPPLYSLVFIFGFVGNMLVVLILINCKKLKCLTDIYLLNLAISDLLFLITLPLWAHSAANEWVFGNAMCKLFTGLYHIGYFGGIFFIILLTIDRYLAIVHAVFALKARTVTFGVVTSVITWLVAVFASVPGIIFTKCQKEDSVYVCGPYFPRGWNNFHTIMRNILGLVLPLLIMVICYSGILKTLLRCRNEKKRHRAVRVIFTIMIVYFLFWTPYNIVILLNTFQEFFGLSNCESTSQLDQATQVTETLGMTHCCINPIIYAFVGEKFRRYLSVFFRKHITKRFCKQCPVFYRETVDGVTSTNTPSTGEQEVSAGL
Description: Inhibition of MCP-1 Induced Ca-flux in Human THP-1 Cells
MCP-1 binding to the CCR2 receptor induces a rapid and transient intracellular release of Ca^2+ (secondary messenger) in several cell lines (Charo et al, PNAS 1994). Free Ca^2+ levels can be measured using a Ca^2+ sensitive dye. When the CCR2 receptor is blocked with a CCR2 receptor antagonist, the MCP-1 induced release of Ca^2+ is inhibited.
Human THP-1 cells (monocytic cell line, ATCC TIB-202) were cultured in RPMI 1640 medium supplemented with 10% fetal calf serum (FCS), 1% L-Glutamine, penicillin (50 U/ml) and streptomycin (50 μg/ml) (all GIBCO BRL, Gent). After centrifugation, cells were loaded for 30 minutes with the Ca^2+ sensitive fluorescent dye Fluo-3 AM (Molecular Probes, Leiden, Netherlands) (2 million cells/ml in RPMI medium containing 4 μM Fluo-3 AM, 20 mM HEPES, 0.1% Bovine Serum Albumin (BSA) and 5 mM probenecid). Excess dye was removed by 3-fold washing with buffer (5 mM HEPES, 140 mM NaCl, 1 mM MgCl2, 5 mM KCl, 10 mM glucose, 2.5 mM probenecid, 1.25 mM CaCl2, 0.1% BSA; all further incubations were done in this buffer). Cells were plated at a density of 150 000 cells/well in dark-wall 96-well plates (Costar, Cambridge, Mass.) and sedimented by centrifugation (1 minute). The cells were pre-incubated for 20 minutes with test compound. Then, 10^−7 M hMCP-1 (Bachem, Bubendorf, Switserland) was added. Changes in intracellular free Ca^2+ concentration were measured using the Fluorescent Imaging Plate Reader (FLIPR, Molecular Devices, Munchen, Germany). Fluorescence was recorded every second from 10 seconds before the addition of the MCP-1 till 2 minutes after the addition (first minute: 60 records with 1 second intervals, second minute 20 records with 3 second intervals). The maximal fluorescence obtained during this time frame was used for further calculations.
Table 3 reports pIC50 values obtained in the above-described test for compounds of formula (I). pIC50 defines −log IC50 wherein IC50 is the molar concentration of the test compound which inhibits 50% of specific MCP-1 induced Ca^2+ flux.

With `CCC(c1ccc(Cl)c(Cl)c1)n1c(C(=O)OC)c(NC(=O)c2cncnc2)[nH]c1=S` (stereo not drawn) [Compound 9] as the molecule, how does the IC50 read?
Its IC50 is 200 nM.

For `CCC(c1ccc(Cl)c(Cl)c1)n1c(C(=O)OC)c(NC(=O)c2cccnc2)[nH]c1=S` (stereo not drawn) [Compound 5], which IC50 is on record?
Its IC50 is 200 nM.

With `CCC(c1ccc(Cl)c(Cl)c1)n1c(C(=O)OC)c(NC(=O)c2cnccn2)[nH]c1=S` (stereo not drawn) [Compound 3] as the molecule, how does the IC50 read?
Its IC50 is 79.4 nM.

For `CCC(c1ccc(Cl)c(Cl)c1)n1c(C(=O)OC)c(NC(=O)N2CCN(C)CC2)[nH]c1=S` (stereo not drawn) [Compound 20], which IC50 is on record?
The IC50 was 316 nM.

With `CCC(c1ccc(Cl)c(Cl)c1)n1c(C(=O)OC)c(NC(=O)OC)[nH]c1=S` (stereo not drawn) [Compound 15] as the molecule, how does the IC50 read?
Its IC50 is 15.8 nM.

For `CCC(c1ccc(Cl)c(Cl)c1)n1c(C(=O)OC)c(NC(=O)N2CCCCC2)[nH]c1=S` (stereo not drawn) [Compound 23], which IC50 is on record?
Its IC50 is 158 nM.

With `CCC(c1ccc(Cl)c(Cl)c1)n1c(C(=O)OC)c(NC(=O)N2CCCC2)[nH]c1=S` (stereo not drawn) [Compound 21] as the molecule, how does the IC50 read?
Its IC50 is 126 nM.

Which IC50 does the source give for `CCC(c1ccc(Cl)c(Cl)c1)n1c(C(=O)OC)c(NC(=O)c2ccccn2)[nH]c1=S` (stereo not drawn) [Compound 12] here?
Its IC50 is 39.8 nM.

For `CCC(c1ccc(Cl)c(Cl)c1)n1c(C(=O)OC)c(NC(=O)C2CCOC2)[nH]c1=S` (stereo not drawn) [Compound 13], which IC50 is on record?
Its IC50 is 79.4 nM.

For `CCC(c1ccc(Cl)c(Cl)c1)n1c(C(=O)OC)c(NC(=O)c2ccncc2)[nH]c1=S` (stereo not drawn) [Compound 6], which IC50 is on record?
The IC50 was 126 nM.

For `CCC(c1ccc(Cl)c(Cl)c1)n1c(C(=O)OC)c(NC(C)=O)[nH]c1=S` (stereo not drawn) [Compound 2], which IC50 is on record?
Its IC50 is 50.1 nM.

For `CCC(c1ccc(Cl)c(Cl)c1)n1c(C(=O)OC)c(NC(=O)N2CCN(Cc3ccccc3)CC2)[nH]c1=S` (stereo not drawn) [Compound 22], which IC50 is on record?
Its IC50 is 398 nM.

Which IC50 does the source give for `CCC(c1ccc(Cl)c(Cl)c1)n1c(C(=O)OC)c(NC(=O)N2CCOCC2)[nH]c1=S` (stereo not drawn) [Compound 18] here?
Its IC50 is 100 nM.

With `CCC(c1ccc(Cl)c(Cl)c1)n1c(C(=O)OC)c(NC(=O)C2CCCO2)[nH]c1=S` (stereo not drawn) [Compound 19] as the molecule, how does the IC50 read?
The IC50 was 79.4 nM.

With `CCC(c1ccc(Cl)c(Cl)c1)n1c(C(=O)OC)c(NC(=O)c2cc(C)on2)[nH]c1=S` (stereo not drawn) [Compound 7] as the molecule, how does the IC50 read?
The IC50 was 158 nM.

With `CCC(c1ccc(Cl)c(Cl)c1)n1c(C(=O)OC)c(NC(=O)c2nonc2C)[nH]c1=S` (stereo not drawn) [Compound 8] as the molecule, how does the IC50 read?
Its IC50 is 501 nM.

For `CCC(c1ccc(Cl)c(Cl)c1)n1c(C(=O)OC)c(NC(=O)c2ccco2)[nH]c1=S` (stereo not drawn) [Compound 11], which IC50 is on record?
Its IC50 is 25.1 nM.

For `CCC(c1ccc(Cl)c(Cl)c1)n1c(C(=O)OC)c(NC(=O)c2ccccc2)[nH]c1=S` (stereo not drawn) [Compound 10], which IC50 is on record?
Its IC50 is 200 nM.

Which IC50 does the source give for `CCC(=O)Nc1[nH]c(=S)n(C(CC)c2ccc(Cl)c(Cl)c2)c1C(=O)OC` (stereo not drawn) [Compound 4] here?
The IC50 was 126 nM.

With `CCC(c1ccc(Cl)c(Cl)c1)n1c(C(=O)OC)c(NC(=O)NCC(OC)OC)[nH]c1=S` (stereo not drawn) [Compound 16] as the molecule, how does the IC50 read?
Its IC50 is 251 nM.

For `CCC(c1ccc(Cl)c(Cl)c1)n1c(C(=O)OC)c(NC(=O)NCc2ccccc2)[nH]c1=S` (stereo not drawn) [Compound 17], which IC50 is on record?
The IC50 was 631 nM.

Which IC50 does the source give for `CCC(c1ccc(Cl)c(Cl)c1)n1c(C(=O)OC)c(N)[nH]c1=S` (stereo not drawn) [Compound 1] here?
Its IC50 is 63.1 nM.

tested on: not given; experiment: not given; details: not given

With `CCC(c1ccc(Cl)c(Cl)c1)n1c(C(=O)OC)c(NC(=O)c2cnccn2)[nH]c1=S` (stereo not drawn) [Compound 3] as the molecule, how does the melting point read?
Its melting point is 196.9 to 198.6 °C.

Which melting point does the source give for `CCC(c1ccc(Cl)c(Cl)c1)n1c(C(=O)OC)c(N)[nH]c1=S` (stereo not drawn) [Compound 1] here?
Its melting point is 183.9 to 184 °C.
